In patent publication US8962633B2, “Methods of treatment and prevention of metabolic bone diseases and disorders” (Thomas Jefferson University, priority 2007, dated 2015):

Tests used:
[1] = test system: diabetic/hypercholesterolemic pig model (DM/HC); experiment: MicroCT analysis of trabecular bone (medial femoral condyle) in the DM/HC pig model; type: in vivo; details: for SMI (structural model index) / Tb.Th (trabecular thickness): 10 mg/kg/day
Procedure: Animal model: A diabetic/diabetic hypercholestrolemic pig model (DM/HC) was developed that mimics human-like atherosclerosis. Domestic Yorkshire boars weighing 25-30 kg and aged ˜4 months were castrated and made diabetic with a single intravenous injection of 125 mg/kg of streptozotocin (Sicor Pharmaceuticals, Irvine, Calif.). […] The animals were sacrificed at 6-month after the randomization. The animal protocol has been approved by the Institutional Animal Care and Use Committee of University of Pennsylvania. Daily dosing began on Day 29, at which time each test animal was given a daily dose of 10 mg/kg SB-480848 (given as bolus equivalent in dog food). Animals were NPO from midnight the night before. Animals were euthanized on Day 196 and tissues harvested immediately. Tissue sampling: The right knee joint was removed and dissected. The femoral bone was split in half in parallel to the long axis of the bone. A piece of bone including both the articular surface and growth plate region (˜15-20 mm) was sliced off from the front and parallel to the femoral shaft (FIG. 1). The tissues were fixed in 4% paraformaldehyde and scanned within one week in a μCT scanner (μCT-40, Scanco Corp.) with a voxel resolution of 20 μm. MicroCT Analysis—Micro CT analysis generates 3 dimensional data including bone density and indices of micro-architecture. From the central region, i.e., between the articular surface (top) and the growth plate (bottom), 250 slices (˜[…]) were analyzed. To avoid artifact, the measurements were contoured away from the regions directly below the articular surface and the cutting edges. Paraformaldehyde fixed tissues (2×2 cm) were analyzed using microCT 40 (Scanco Medical, Bassersdorf, Switzerland) and a 3D reconstruction of the images slices was generated. The tissues were scanned at a medium resolution with slice thickness and slice increments of 20 μm. […] Scanning was performed at an energy setting of 70000 (V) and an intensity of 114 (μA) with an integration time of 200 ms. All values for tissue volume (mm3), bone volume (mm3), bone volume/tissue volume, and mean/density (mg HA/ccm) were also calculated and recorded. […] The image density was measured with the Distance3D tool of the μCT Evaluation Program V5.0.

[2] = test system: diabetic/hypercholesterolemic pig model (DM/HC); experiment: TUNEL assay of trabecular bone in DM/HC pigs; type: in vivo; details: treated vs non-treated DM/HC pigs, n=4 per group
Procedure: (§1) Animal model: A diabetic/diabetic hypercholestrolemic pig model (DM/HC) was developed that mimics human-like atherosclerosis. Domestic Yorkshire boars weighing 25-30 kg and aged ˜4 months were castrated and made diabetic with a single intravenous injection of 125 mg/kg of streptozotocin (Sicor Pharmaceuticals, Irvine, Calif.). After stabilized for 1-2 weeks, the animals with elevated levels of plasma glucose (>150 mg/dl) were fed with atherogenic (high-fat) diet as shown in Table 1 (Animal Specialties, Quakertown, Pa.) to achieve a cholesterol level of approximately 250-800 mg/dl.
(§2) At one month after stabilization of choleresterol at 250-800 mg/dl, the animals were randomized into two experimental groups, DM/HC (hyperglycemia and hypercholesterolemia) group with no treatment and treatment group (10 mg/kg/day of SB-480848, also referred to as 1-(N-(2-(diethylamino)ethyl)-N-(4-(4-trifluoromethylphenyl)benzyl)-aminocarbonylmethyl)-2-(4-fluorobenzyl)thio-5,6-trimethylenepyrimidin-4-one). The animals were sacrificed at 6-month after the randomization. The animal protocol has been approved by the Institutional Animal Care and Use Committee of University of Pennsylvania.
Daily dosing began on Day 29, at which time each test animal was given a daily dose of 10 mg/kg SB-480848 (given as bolus equivalent in dog food). […]
TUNEL Assay. Apoptosis was measured by the TUNEL assay. […]

[3] = Body weight and general observation of DM/HC pigs during the study; type: in vivo, pig
Procedure: as §1, §2
(§3) Daily dosing began on Day 29, at which time each test animal was given a daily dose of 10 mg/kg SB-480848 (given as bolus equivalent in dog food). Animals were NPO from midnight the night before. […]

[4] = test system: diabetic/hypercholesterolemic pig model (DM/HC); experiment: Histochemical staining (H&E-AB) of bone marrow in DM/HC pigs; type: in vivo; details: treated vs non-treated DM/HC pigs
Procedure: as §1, §2, §3

[5] = test system: MLO-A5 osteoblastic cells; experiment: Alkaline phosphatase staining (osteoblast differentiation) of MLO-A5 cells; type: cell-based, mice; details: vs control
Procedure: (§4) Alkaline Phosphatase and Alizarin Red Staining. Alizarin Red and Alkaline Phosphatase Staining are bone marker proteins indicating the degree of mineralization and intensity of osteblast differentiation, respectively. MLO-A5 osteoblastic cells (isolated from 14-day-old osteocalcin promoter-driven T-antigen transgenic mice, J Bone Miner Res 12:2014-2023, 1997) were cultured on Collagen1 coated plates at density 15000 cells/well in 12-well TC plates. After 24 hours, the cells were treated w/10 mM β-GP and LysoPC at 5 μM concentration for 3 and 7 days. Treatment was repeated every other day. At each time point alizarin red and alkaline phosphatase staining was performed. Alkaline phosphatase Detection Kit (Chemicon, Intl., Temecula, Calif., SCR004) was used for detection and performed as per manufactures instructions. To visualize mineralization the cells were washed once with a 2% Alizarin Red S solution for 5-10 min. at room temperature followed by one wash with water, two washes with PBS and fixation with paraformaldehyde. The results were then imaged with a digital cooled CCD camera.

MLO-A5 cells = experiment: CyQUANT cell proliferation assay in MLO-A5 cells; type: cell-based, mice; details: 5 μM LysoPC, 18 hours, vs non-treated cells
Procedure: Cell Proliferation. MLO-A5 cells were plated in 48-well TC dishes at a density of 5,000 cells/well and allowed to attach (5-6 hrs.). The cells were treated with 5 uM of Lyso PC for 18 hrs followed by analysis with the CyQUANT Cell Proliferation Assay Kit (Molecular Probes) following manufacturers instructions to measure MLO-A5 proliferation.

[6] = test system: MLO-A5 osteoblastic cells; experiment: Alizarin Red staining (mineralization) of MLO-A5 cells; type: cell-based, mice; details: 5 μM LysoPC, 7 days, vs non-treated control cells
Procedure: as §4

[7] = DM/HC pigs, 10 mg/kg/day SB-480848, sacrificed Day 196
[8] = DM/HC pigs, 10 mg/kg/day SB-480848, sacrificed Day 196, listed as Lp-PLA2 inhibitor

CCN(CC)CCN(Cc1ccc(-c2ccc(C(F)(F)F)cc2)cc1)C(=O)Cn1c(SCc2ccc(F)cc2)nc(=O)c2c1CCC2 [SB480848, 1-(N-(2-(diethylamino)ethyl)-N-(4-(4-trifluoromethylphenyl)benzyl)-aminocarbonylmethyl)-2-(4-fluorobenzyl)thio-5,6-trimethylenepyrimidin-4-one]
osteoporotic changes (BV/TV, BS/BV) ([1]; DM/HC pigs treated with inhibitor, in words): no osteoporotic changes
BS/BV (bone surface over bone volume) [1, 7]: 24.40 ± 0.51
BV/TV (bone volume over total volume) [1, 7]: 0.25 ± 0.01
Conn-Dens (connectivity density) [1, 7]: 35.69 ± 1.22
Tb.N (trabecular number) [1, 7]: 2.78 ± 0.06
Tb.Sp (trabecular separation) [1, 7]: 0.33 ± 0.007
SMI (structural model index) [1, 7]: 0.65 ± 0.10
Tb.Th (trabecular thickness) [1, 7]: 0.10 ± 0.002
SMI (structural model index) [1, 8]: degenerative changes were minimized
Tb.Th (trabecular thickness) [1, 8]: reduced Tb.Th thickness was prevented
changes in Tb.Sp, TbN and ConnD ([1]; control vs DM/HC vs treated DM/HC animals, in words): no significant changes
death of osteocytes and osteoblasts (TUNEL positive cells) [2]: reduced death of osteocytes and osteoblasts
weight ([3]; treated DM/HC pigs at end of study, baseline 26.9 kg, control animals 50.9 kg): 62.5 kg
responsiveness and activity of the animals ([3]; treated vs control DM/HC pigs, observation): more responsive to external stimuli
trabecular bone marrow morphology / homeostasis ([4]; H&E-AB staining, trabecular bone areas): preserved bone marrow homeostasis
bone marrow remote from trabecular bone [4]: prevented DM/HC-induced bone marrow abnormalities

lyso-phosphatidylcholine [LysoPC]
alkaline phosphatase staining ([5]; 5 μM LysoPC, 7 day treatment): decreased alkaline phosphatase staining
alkaline phosphatase staining ([5]; at least 5 μM LysoPC (5 and 20 μM), 7 days): reduced alkaline phosphatase staining
proliferation (MLO-A5 cells): reduced proliferation
mineralization (Alizarin Red staining) [6]: decreased mineralization
